These results are taken from patent US20230270119A1, “BIOSTIMULANT AND BIOPROTECTIVE PEPTIDES AND THEIR USE IN AGRICULTURE” (priority 2020, published 2023).

Assay [1] concerns Spodoptera littoralis larvae. Description: Bioassay on Spodoptera littoralis larvae fed with peptide-treated tomato leaves. It counts as in vivo. The settings on record: day 13, femtomolar concentration; for average weight of larvae: control 59 mg (FIG. 11A); for survival rate of larvae: control 100% (FIG. 11B). The method, then: Briefly, S. littoralis larvae were grown in a climate chamber at 25° C., 70% relative humidity (RH), with a 16-hour light and 8-hour dark photoperiod and fed with an artificial diet until completion of the first moult. For the bioassays, 150 larvae for each thesis were grown on tomato leaves for the entire duration of the second instar to adapt them to the different diet. The newly moulted third-instar larvae up to the moult stage were fed with plants on which a composition comprising peptides PS1-70 and PS1-120 had been applied at 100 pM and 100 fM concentrations in 1×PBS buffer. Larvae fed with plants treated with 1×PBS buffer only were used as a control. Bioassays were carried out under the same environmental conditions, in 32-well plastic trays containing 1.5% (w/v) agar and 0.005% (w/v) methyl parahydroxybenzoate, which are useful for creating a humid environment for maintaining cell turgor of tomato leaves. Each experimental group consisted of 32 larvae. The survival of the larvae was monitored daily, and their weight every other day. […] A significant decrease in the survival of larvae fed with leaves of plants treated with the peptides of the invention compared to those fed with leaves of the control plants was also observed for both assays (FIGS. 10B and 10D). […] The same assay scheme was carried out by the present inventors by feeding S. littoralis larvae with leaves treated with the peptide PS1-70 and with peptides having the sequences SEQ ID NO. 3, 5, and 8 at femtomolar concentration. […] A significant decrease was also observed in the survival of larvae fed with peptide-treated leaves compared to those fed with the control leaves (FIG. 11B). […] 8, SEQ ID NO. 3, and SEQ ID NO. 5 (FIG. 11B).

A further assay relates to Botrytis cinerea. Description: Botrytis cinerea necrosis areas on treated detached tomato leaves. It is filed as in vivo, Botrytis cinerea on Solanum lycopersicum. The settings on record: 100 fM, day 8, control 11.72 mm^2 (FIG. 13). The method, then:
(§1) For the performance of assays on the phytopathogenic Botrytis cinerea and Alternaria alternata fungi, the present inventors used spores of this microorganism obtained from cultures on solid PDA (Potato Dextrose Agar) sporulation substrate. The plates were inoculated with 20 μl of a conidial suspension at a concentration of 1×10^6 spores/ml and incubated for 15 days at 25° C. in the presence of diffused light, so as to obtain complete sporulation. The spores were then collected in 5 ml of sterile water and, in order to remove the mycelium, were filtered through glass wool, washed with sterile distilled water and collected by centrifugation at room temperature. The concentration of spores suitable for inoculation (10^5-10^7 spores/ml) was determined by the serial dilution method using a Burker cell counting chamber for spore counting.
(§2) The assay was carried out on a detached leaf by taking a compound leaf for each treated tomato plant and for each control plant. Each leaflet of the compound leaf was marked with 3 markers in order to guide the subsequent application of the spores and detection of the pathogen developing necrotic areas.
The leaves were treated by applying 2 μl of a composition comprising the peptides PS1-70 and PS1-120 of the invention at a concentration of 100 pM, 100 fM or 1×PBS for the control leaves. After 6 hours, the time necessary for the perception of the peptides, the leaves were detached from the plant and inoculations with 10 μl of spore solution were carried out in the internerve spaces and near the previously marked points. Monitoring was carried out by measuring the necrosis areas (expressed in mm^2) 1, 3, 5, 8 days after inoculation of the pathogen. The necrosis areas recorded on the control leaves were much larger than those detected on plants treated with the peptides of the invention. This difference increased as a function of the time elapsed since inoculation. The resistance inducing effect of the picomolar treatment is already statistically significant from the first day of inoculation of the pathogen up to the eighth day where values of 33 mm^2 were reached on the control leaves, unlike the treated leaves where values not exceeding 18 mm^2 were recorded for both peptides (FIG. 12A).

For another assay, the system named is CAT2, SAM and APX2 genes. Briefly: Salt stress gene expression in tomato plants irrigated with 100 fM peptides. It is filed as in vivo. Conditions: femtomolar. The method, then:
The analysis was carried out on the CAT2(A), SAM (B) and APX2 (C) genes. The asterisks indicate the statistical significance of the data by Student's t-test (*p<0.05; **p<0.01; ***p<0.001). […] An experiment was also set up to verify the efficiency of the peptides PS1-70, PS1-120 and SEQ ID NO.5, when administered at femtomolar concentrations, in promoting tolerance to a high salt stress condition.

The next assay relates to Alternaria alternata. Briefly: Alternaria alternata necrosis areas on treated tomato leaves. It is filed as in vivo. The settings on record: 100 fM, day 8, control 17 mm^2 (FIG. 14B). On the procedure: as §1, §2
The present inventors also performed assays aimed at determining the effects of exogenous application of the peptides of the invention on tomato plants against the development of the necrotrophic Alternaria alternata fungus (FIG. 14).
The positive effect of the treatment was statistically significant from day 1 of inoculation of the pathogen to day 8 where values of 24 mm^2 were reached on the control leaves, unlike the treated leaves where values of 8.4 and 8.0 mm^2 were recorded on leaves treated with the peptides PS1-70 and PS1-120 at a concentration of 100 fM (FIG. 14A); and values of 17 mm^2 were recorded on the control leaves and values of 8.3 mm^2, 7.9 mm^2, 8.9 mm^2, and 7.8 mm^2 were recorded on leaves treated with the peptides PS1-70, SEQ ID NO.8, SEQ ID NO.3 and SEQ ID NO.5, respectively, at a concentration of 100 fM (FIG. 14B).

The nature of assay [2]: Biometric parameters of tomato plants irrigated with peptides. It is filed as in vivo. Conditions: 100 fM. The method, then:
FIG. 20 illustrates the effect of irrigation treatment with the peptides PS1-70, PS1-120 and SEQ ID NO.5 at a concentration of 100 fM on the biometric parameters of the tomato plant. […] The asterisks indicate the statistical significance of the data by Student's t-test (*p<0.05). A few biometric parameters are shown in FIG. 20, measured after 14 days of continuous salt stress (150 mM) and 15 days after irrigation with the peptides PS1-70, PS1-120 and SEQ ID NO.5 at 100 fM concentrations, and the respective controls.

For the sequence DDMQEEPKVKLHHEKG [SEQ ID NO. 5], in assay [1], the “average weight of larvae” value is given as 21 mg and the “survival rate of larvae” value stood at 15.62%. In the assay with Botrytis cinerea, the necrosis areas worked out at 6.81 mm^2. Besides, the “activation of salt stress-responsive genes” value with CAT2, SAM and APX2 genes (8 days after irrigation, 0 mM NaCl (FIG. 18A1, B1, C1)) is listed as “able to activate a series of salt stress-responsive genes”. Moreover, the “tolerance to salt / induction of responsive genes” value in the assay on CAT2, SAM and APX2 genes (irrigated 7 days with 150 mM NaCl (FIG. 18A2, B2, C2)) is listed as “more salt-tolerant than the untreated control plants”. In addition, the necrosis areas with Alternaria alternata was found to be 7.8 mm^2. Also, the “root surface (root area)” value in assay [2] (14 days of salt stress 150 mM, 15 days after irrigation (FIG. 20A)) is on record as “greater root surface”. Moreover, the “growth (fresh weight) of the aerial part” value in assay [2] (absence of salt (FIG. 20B)) is on record as “able to promote the growth of the aerial part of the plant”.

Consider “DDMQEEPKVKLHHEKGGDEKEKIIEKETPSQDI [SEQ ID NO. 8]”, for which the “average weight of larvae” value in assay [1] was 13 mg. Besides, in assay [1], the “survival rate of larvae” value was found to be 15.62%. Further, the necrosis areas with Botrytis cinerea was determined as 7.67 mm^2; in the assay with Alternaria alternata it was 7.9 mm^2.

As to EKETPSQDI [SEQ ID NO. 3], in assay [1], the “average weight of larvae” value came out at 24 mg and the “survival rate of larvae” value was found to be 43.75%. In the assay with Botrytis cinerea, this sequence came in with a necrosis areas of 8.89 mm^2. Moreover, the necrosis areas with Alternaria alternata turned out to be 8.9 mm^2.
